Common to all, as to assay: NCI tumour cell line growth inhibition, 48 h
In assay [1] the test system is EKVX NSCLC.
Assay [2] deals with LOX IMVI melanoma.
Assay [3] relates to NCI-H522 lung.
The test system of assay [4] is NCI-H460 lung.
For assay [5], the system named is A549 NSCLC.
The test system of assay [6] is MCF7 breast.
Assay [7] deals with DU-145 prostate.
For assay [8], the system named is OVCAR-5 ovarian.
Assay [9] concerns NCI/ADR-RES ovarian.
Assay [10] concerns HT29 colon.

“And” between values parts separate entries of the source, which are not always exact repeats. Equal entries are not always repeated.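 Following 48 hours of exposure in 96-well plates, responses at five concentrations were used to interpolate endpoints linearly. At the GI50, growth is halved. TGI: total growth inhibition.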

On to `O=S(=O)(O)ONC1=NCCN1`, for which the GI50 in assay [1] was over 100 µM; in [2], 76.6 µM; in assay [3], over 100 µM; in assay [4] it was over 100 µM; in assay [5] it was over 100 µM; in [6], 16.1 µM. Further, the GI50 in [7] was over 100 µM; in assay [8] it was over 100 µM; in assay [9], over 100 µM; in assay [10], 58.1 µM. Besides, the TGI in [1], in [2], in [3], in assay [4], in assay [5] and in [6] was over 100 µM in each case. Also, the TGI in assay [7], in assay [8], in assay [9] and in [10] was over 100 µM each time.
Turning to `Cn1ncc(-c2ccc3c(=O)[nH]nc(CN)c3c2)c1-c1c(F)cc2ccccc2c1C#N`, the GI50 is 11.9 µM in assay [1]; 1.32 µM in assay [2]; 4.17 µM in [3]; 3.67 µM in [4]; 5.14 µM in assay [5]; 1.52 µM in assay [6]. Besides, the GI50 in assay [7] is 8.59 µM; in [8] it was 11.3 µM; in [9], 12.7 µM; in assay [10] it was 3.34 µM. In addition, the TGI in assay [1] is 25.1 µM; in assay [2], 4.11 µM; in assay [3] it was 17.7 µM; in assay [4], 14.6 µM; in assay [5], 18.3 µM; in assay [6], 12.6 µM. The TGI in assay [7] turned out to be 21.1 µM; in [8] it was 29.4 µM; in assay [9] it was 50.5 µM; in assay [10], 14.5 µM.
With `Oc1c(CN2CCOCC2)cc(COCc2ccccc2)c2cccnc12`, the GI50 in assay [1] is 2.88 µM; in assay [2] it was 1.19 µM; in assay [3] it was 1.79 µM; in [4] it was 0.756 µM; in assay [5] it was 4.22 µM; in assay [6] it was 2.07 µM. Moreover, the GI50 in assay [7] is 4.73 µM; in [8], 5.08 µM; in assay [9], 0.287 µM; in assay [10], 19.8 µM. Moreover, the TGI in assay [1] is over 100 µM; in [2], 10.4 µM; in assay [3], 8.56 µM; in assay [4], 53.3 µM; in assay [5], 64 µM; in [6] it was over 100 µM. For the same compound, the TGI in assay [7] was over 100 µM; in [8] it was over 100 µM; in [9], 1.88 µM; in assay [10], 65.4 µM.
For `O=[N+]([O-])c1cc(F)c2cccnc2c1O`, the GI50 was 22.9 µM in assay [1]; 4.63 µM in assay [2]; 4.01 µM in assay [3]; 3.83 µM in [4]; 6.94 µM in assay [5]; 17.4 µM in assay [6]. Further, the GI50 was 6.28 µM in assay [7], 35.8 µM in [8], 3.61 µM in assay [9] and 4.55 µM in assay [10]. The TGI in [1] was over 100 µM; in [2], over 100 µM; in [3], 26 µM; in assay [4], 30.5 µM; in assay [5], over 100 µM; in assay [6] it was 74.9 µM. The TGI in assay [7] is over 100 µM; in assay [8] it was over 100 µM; in assay [9], 45.3 µM; in assay [10], 20.7 µM.
For the compound `Cc1ccc2c(c1)C(=O)c1c-2n(CCCN=[N+]=[N-])c(=O)c2cc([N+](=O)[O-])ccc12`, the GI50 was over 100 µM in assay [1]; 33.2 µM in [2]; 25.8 µM in [3]; 21.1 µM in [4]; 97.8 µM in [5]; 50.1 µM in assay [6]. Besides, the GI50 was over 100 µM in assay [7], over 100 µM in [8], 94 µM in [9] and 14.7 µM in [10]. In addition, the TGI in [1], in assay [2], in assay [3], in [4], in assay [5] and in [6] was over 100 µM throughout. The TGI in assay [7], in [8], in assay [9] and in assay [10] was over 100 µM each time.
Turning to `COc1ccc(NC(=O)/C=C(C)/C=C/C=C(C)\C=C\C2=C(C)CCCC2(C)C)cc1`, the GI50 in assay [1] was 79 µM; in assay [2], 32 µM; in assay [3] it was 28.2 µM; in [4], 84 µM; in assay [5], 87.9 µM; in assay [6], 40.3 µM. Moreover, the GI50 in [7] is over 100 µM; in assay [8] it was over 100 µM; in assay [9], 60.6 µM; in [10], 41.2 µM. Besides, the TGI in assay [1], in [2], in assay [3], in [4], in [5] and in assay [6] was over 100 µM throughout. In addition, the TGI in assay [7], in assay [8], in assay [9] and in assay [10] was over 100 µM in each case.
As for `C1CC[N-]CC1.CC(=N\O)/C(C)=N/O.CC(=N\O)/C(C)=N/O.[CH2-]CCN1CCOCC1.[Co+2]`, the GI50 in assay [1], in assay [2], in [3], in [4], in [5] and in assay [6] was over 100 µM in each case. The GI50 in [7], in [8], in [9] and in assay [10] was over 100 µM in each case. The TGI in [1], in assay [2], in [3], in assay [4], in [5] and in assay [6] was over 100 µM in each case. Moreover, the TGI in [7], in assay [8], in assay [9] and in assay [10] was over 100 µM throughout.
For the compound `ClCC#CCSc1ncnc2c1ncn2CC#CCCl`, the GI50 in assay [1] was 1.9 µM; in assay [2], 0.503 µM; in [3] it was 1.14 µM; in assay [4] it was 2.15 µM; in assay [5] it was 1.76 µM; in assay [6], 1.18 µM. For the same compound, the GI50 in assay [7] was 1.79 µM; in assay [8] it was 1.73 µM; in assay [9] it was 1.77 µM; in [10], 1.65 µM. Also, the TGI turned out to be 4.2 µM in [1]; 2 µM in assay [2]; 2.73 µM in assay [3]; 6.77 µM in [4]; 4.35 µM in [5]; 3.62 µM in assay [6]. In addition, the TGI is 4.49 µM in assay [7], 3.34 µM in assay [8], 4.92 µM in [9] and 3.85 µM in assay [10].
Take `OC(COc1cccc2ccccc12)CN1CCN(c2ccccc2Cl)CC1` (stereo not given): the GI50 was 12.9 µM in [1]; 14.2 µM in assay [2]; 10.6 µM in [3]; 12.8 µM in assay [4]; 18.2 µM in [5]; 14.7 µM in assay [6]. The GI50 was 14.6 µM in assay [7], 11.5 µM in assay [8], 13.2 µM in assay [9] and 3.3 µM in assay [10]. For the same compound, the TGI in assay [1] was 31.7 µM; in assay [2], 30.2 µM; in assay [3], 25.1 µM; in [4], 29 µM; in assay [5], 35.4 µM; in assay [6] it was 28.3 µM. For the same compound, the TGI in [7] came to 28.5 µM; in assay [8], 24.1 µM; in assay [9], 28.6 µM; in assay [10], 12.5 µM.
For `CCOC(=O)c1ccccc1-c1c2ccc(=[N+](C)C)cc-2oc2cc(N(C)C)ccc12`, the GI50 in assay [1] was 0.129 µM; in assay [2], 0.388 µM; in assay [3], 0.306 µM; in assay [4], 0.23 µM; in assay [5] it was 0.256 µM; in [6] it was 0.101 µM. The GI50 was 0.174 µM in assay [7], 0.537 µM in assay [8], 27.2 µM in [9] and 0.211 µM in [10]. In addition, the TGI in assay [1] was over 38.9 µM; in assay [2] it was 4.41 µM; in assay [3], 16.4 µM; in [4] it was 4.42 µM; in assay [5] it was over 38.7 µM; in [6], 19.4 µM. Moreover, the results for the TGI in assay [7], in assay [8] and in assay [9] were 24.1 µM, over 39.6 µM and over 100 µM, respectively.
Consider `N#Cc1c2c(c(-c3cccs3)n(C3OC(CO)C(O)C(O)C3O)c1=S)CCc1ccccc1-2` (stereo not given), for which the TGI in [1], in assay [2], in assay [3], in assay [4], in [5] and in assay [6] was over 100 µM each time. Besides, the TGI in [7], in assay [8], in assay [9] and in assay [10] was over 100 µM each time. For the same compound, the GI50 in assay [3] is 12.8 µM and 3.62 µM; in assay [4] it was 37.8 µM and > 100 µM; in [5], 20.9 µM and > 85.1 µM; in assay [9] it was 13.4 µM and 39.5 µM; in assay [10], 6.27 µM and > 20.9 µM.
`CC(=O)N1CCN(CCOc2ccc(C3CCN(C4=Nn5c(nnc5C(F)(F)F)CC4)CC3)cc2)CC1`: the GI50 is 14.7 µM in [1]; 11.4 µM in assay [2]; 5 µM in assay [3]; 30.9 µM in assay [4]; 41.4 µM in [5]; 4.3 µM in assay [6]. For the same compound, the GI50 is 63 µM in assay [7], 89.4 µM in assay [8], 37 µM in assay [9] and 9.08 µM in assay [10]. Further, the TGI in assay [1], in assay [2], in assay [3], in assay [4], in [5] and in assay [6] was over 100 µM throughout. Further, the TGI in assay [7], in assay [8], in assay [9] and in assay [10] was over 100 µM each time.
Regarding `O=C(CCl)Nc1cc(O)c2c(c1)C(=O)c1cccc(O)c1C2=O`, the GI50 in assay [1] is 1.77 µM; in assay [2], 0.166 µM; in [3], 0.172 µM; in assay [4], 1.79 µM; in assay [5] it was 7.44 µM; in assay [6], 0.725 µM. Also, the GI50 is 1.56 µM in [7], 2.32 µM in assay [8], 2.47 µM in assay [9] and 1.99 µM in [10]. Also, the TGI in assay [1] worked out at 4.52 µM; in [2], 0.623 µM; in [3] it was 0.384 µM; in assay [4], 3.92 µM; in [5], 48.5 µM; in assay [6], 2.61 µM. The TGI in [7] is 2.94 µM; in [8], 5.19 µM; in [9], over 29.2 µM; in [10] it was 3.89 µM.
For `c1ccc2nc(OCCN3CC3)ccc2c1`, the GI50 is 12 µM in assay [1]; 4.05 µM in [2]; 1.71 µM in [3]; 4.21 µM in assay [4]; 14.4 µM in assay [5]; 3.4 µM in assay [6]. Also, the GI50 in assay [7] is 14.8 µM; in assay [8] it was 17.1 µM; in [9], 18.1 µM. Besides, the TGI in [1] was 33.4 µM; in assay [2], over 100 µM; in [3] it was 4.04 µM; in assay [4] it was 20.9 µM; in assay [5], 30.7 µM; in assay [6], 11.4 µM. Further, the TGI is 28 µM in assay [7], 31.5 µM in assay [8] and 44.5 µM in assay [9].
As to `Cc1nnc(-c2ccc(-c3nc4ccccc4o3)cc2)o1`, the GI50 in [1] is 85 µM; in assay [2], over 100 µM; in assay [3], over 100 µM; in [4], 25.9 µM; in assay [5] it was 26.1 µM; in [6], 26.7 µM. Moreover, the GI50 is 42.2 µM in assay [7], 44.8 µM in [8] and over 100 µM in assay [9]. For the same compound, the TGI in assay [1], in assay [2], in assay [3], in assay [4], in assay [5] and in assay [6] was over 100 µM each time. The TGI in [7], in [8] and in assay [9] was over 100 µM in each case.

These data come from PubChem BioAssay (NCI).
